Assays:
[1] = target: PKA(h) (Homo sapiens, UniProt P17612); assay: Kinase Profiler; type: biochemical
Procedure: (§3) Blood cell counts, kinase profiler, safety screen, bacterial cytotoxicity, Ames, micronucleus assays were performed by the company Eurofins (France). The kinase profiler was performed by the company Eurofins (Discovery, Panlab and Cerep).

[2] = target: Blk(m) (Mus musculus, UniProt P16277); assay: Kinase Profiler; type: biochemical
Procedure: as §3

[3] = target: MLK1(h) (Homo sapiens, UniProt P80192); assay: Kinase Profiler; type: biochemical
Procedure: as §3

[4] = target: Rse(h) (Homo sapiens, UniProt Q06418); assay: Kinase Profiler; type: biochemical
Procedure: (§4) The kinase profiler was performed by the company Eurofins (Discovery, Panlab and Cerep).

[5] = target: DCAMKL2(h) (Homo sapiens, UniProt Q8N568); assay: Kinase Profiler; type: biochemical
Procedure: as §3

[6] = target: Tie2(Y897S)(h) (Homo sapiens, UniProt Q02763, Y897S); assay: Kinase Profiler; type: biochemical
Chain of Tie2(Y897S)(h) (Q02763 23-1124 Y897S): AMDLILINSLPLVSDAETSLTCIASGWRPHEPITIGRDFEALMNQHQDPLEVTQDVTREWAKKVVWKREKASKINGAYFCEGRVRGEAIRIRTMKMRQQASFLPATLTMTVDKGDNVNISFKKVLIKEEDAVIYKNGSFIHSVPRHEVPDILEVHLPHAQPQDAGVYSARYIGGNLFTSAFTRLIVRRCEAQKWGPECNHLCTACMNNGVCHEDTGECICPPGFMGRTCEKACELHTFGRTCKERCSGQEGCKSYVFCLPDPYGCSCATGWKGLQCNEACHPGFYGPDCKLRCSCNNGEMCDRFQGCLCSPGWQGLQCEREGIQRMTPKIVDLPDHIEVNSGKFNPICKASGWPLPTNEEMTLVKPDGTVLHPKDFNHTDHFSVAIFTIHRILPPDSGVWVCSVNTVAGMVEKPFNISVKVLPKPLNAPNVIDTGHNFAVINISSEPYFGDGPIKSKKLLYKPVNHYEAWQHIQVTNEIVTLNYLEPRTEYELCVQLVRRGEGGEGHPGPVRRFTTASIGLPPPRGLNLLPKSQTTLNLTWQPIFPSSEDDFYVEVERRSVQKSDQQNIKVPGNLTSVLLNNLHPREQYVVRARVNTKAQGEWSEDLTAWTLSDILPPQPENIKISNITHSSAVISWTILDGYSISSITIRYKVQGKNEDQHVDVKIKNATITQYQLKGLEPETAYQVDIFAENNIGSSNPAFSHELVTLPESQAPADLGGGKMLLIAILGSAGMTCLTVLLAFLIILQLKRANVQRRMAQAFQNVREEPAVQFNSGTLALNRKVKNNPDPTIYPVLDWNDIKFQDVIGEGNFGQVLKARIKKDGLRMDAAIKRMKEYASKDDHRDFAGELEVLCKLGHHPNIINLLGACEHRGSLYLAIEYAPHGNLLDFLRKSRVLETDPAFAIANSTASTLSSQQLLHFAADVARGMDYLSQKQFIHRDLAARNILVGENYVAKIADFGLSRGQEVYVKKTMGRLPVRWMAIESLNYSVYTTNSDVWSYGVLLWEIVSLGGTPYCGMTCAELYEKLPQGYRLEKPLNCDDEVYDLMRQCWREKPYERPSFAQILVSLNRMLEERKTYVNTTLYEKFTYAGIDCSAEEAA
Procedure: as §4

[7] = tested on: p44/42 phosphorylation in MDA-MB-468 Luc cells; assay: Immunoblotting; type: cell-based; details: 10^-5 M, 1 h
Procedure: (§1) Figure 5 A41 decreases growth and invasiveness of TNBC cells in vitro (A) Representative images of RAC-GTP levels (red) in MDA-MB-468 Luc cells in the absence (CTL) and presence of EHT1864, NSC23766, or A41 (1 h at 10 μM) (left). Luciferase (Luc, green) was used to detect the cells. RAC-GTP mean fluorescence intensity was quantified inside the cell area (right) (n = 31–37 cells from 3 independent experiments; ∗p < 0.05, ∗∗∗p < 0.001) (scale bars: 10 μm). […] (C) Quantification of colony number of indicated cancer cell lines in the presence of A41 (10 μM) expressed as the percentage of control in the absence of A41. Results shown are representative of N > 3 independent experiments. (D) Immunoblot analysis and corresponding quantification of AKT and P44/42 expression and phosphorylation (pAKT, p44/42) in MDA-MB-468 Luc cells in the absence (−) and presence of NSC23766 or A41 (1 h at 10^−5 M). […] (E) 3D invasion assay of MDA-MB-468 Luc and cancer-associated fibroblasts (CAFs) and corresponding quantification (scale bars: 200 μm). […]
(§2) After indicated treatments, MDA-MB-468Luc cells were incubated on ice with lysis buffer supplemented with proteases and phosphatases inhibitor cocktails (Sigma Aldrich, Saint Quentin Fallavier, France) and sodium orthovanadate. […] Protein band intensities were quantified using ImageJ Software (NIH software, Bethesda, Md).

[8] = tested on: AKT phosphorylation in MDA-MB-468 Luc cells; assay: Immunoblotting; type: cell-based; details: 10^-5 M, 1 h
Procedure: as §1, §2

[9] = target: NLK(h) (Homo sapiens, UniProt Q9UBE8); assay: Kinase Profiler; type: biochemical
Chain of NLK(h) (Q9UBE8 whole entry): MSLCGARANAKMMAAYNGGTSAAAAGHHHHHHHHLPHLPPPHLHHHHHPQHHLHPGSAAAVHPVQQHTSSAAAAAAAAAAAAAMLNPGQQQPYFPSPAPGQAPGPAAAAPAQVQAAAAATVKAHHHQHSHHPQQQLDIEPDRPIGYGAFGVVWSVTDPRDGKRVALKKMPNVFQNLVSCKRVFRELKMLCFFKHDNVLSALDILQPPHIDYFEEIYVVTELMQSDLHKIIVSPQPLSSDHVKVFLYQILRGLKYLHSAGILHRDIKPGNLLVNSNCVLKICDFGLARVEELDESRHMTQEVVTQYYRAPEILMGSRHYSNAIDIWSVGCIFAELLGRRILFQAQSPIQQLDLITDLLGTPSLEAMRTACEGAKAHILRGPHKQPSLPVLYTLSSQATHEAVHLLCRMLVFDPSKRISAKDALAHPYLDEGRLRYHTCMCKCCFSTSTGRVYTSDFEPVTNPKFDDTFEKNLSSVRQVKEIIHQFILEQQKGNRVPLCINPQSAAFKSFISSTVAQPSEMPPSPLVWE
Procedure: as §4

[10] = target: B-Raf(V599E)(h) (Homo sapiens, UniProt P15056, V600E); assay: Kinase Profiler; type: biochemical
Chain of B-Raf(V599E)(h) (P15056 417-766 V600E limits assumed): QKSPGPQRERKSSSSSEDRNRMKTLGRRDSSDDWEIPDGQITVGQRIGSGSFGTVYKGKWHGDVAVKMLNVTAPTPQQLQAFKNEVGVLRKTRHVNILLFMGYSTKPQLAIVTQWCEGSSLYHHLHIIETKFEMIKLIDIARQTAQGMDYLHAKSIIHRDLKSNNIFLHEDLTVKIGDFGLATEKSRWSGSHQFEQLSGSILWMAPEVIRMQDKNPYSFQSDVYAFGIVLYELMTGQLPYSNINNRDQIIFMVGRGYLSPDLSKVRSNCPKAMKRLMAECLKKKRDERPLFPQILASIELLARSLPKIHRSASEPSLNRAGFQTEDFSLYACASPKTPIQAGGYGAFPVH
Procedure: as §3

Chain of Blk(m) (P16277 2-499 limits assumed): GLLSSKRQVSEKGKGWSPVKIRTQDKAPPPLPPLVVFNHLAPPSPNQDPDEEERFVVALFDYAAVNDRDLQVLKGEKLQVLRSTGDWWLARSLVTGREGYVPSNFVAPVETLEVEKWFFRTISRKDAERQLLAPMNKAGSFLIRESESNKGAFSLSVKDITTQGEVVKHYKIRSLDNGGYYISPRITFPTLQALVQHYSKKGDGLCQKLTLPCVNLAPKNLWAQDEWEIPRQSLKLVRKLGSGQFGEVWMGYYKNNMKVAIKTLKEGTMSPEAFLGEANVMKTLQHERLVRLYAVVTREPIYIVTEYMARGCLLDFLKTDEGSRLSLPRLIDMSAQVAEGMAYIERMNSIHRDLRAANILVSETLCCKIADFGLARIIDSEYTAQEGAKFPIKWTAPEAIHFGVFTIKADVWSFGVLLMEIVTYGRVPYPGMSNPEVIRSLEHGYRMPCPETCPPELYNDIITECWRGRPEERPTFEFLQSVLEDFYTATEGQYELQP
Chain of Rse(h) (Q06418 41-890): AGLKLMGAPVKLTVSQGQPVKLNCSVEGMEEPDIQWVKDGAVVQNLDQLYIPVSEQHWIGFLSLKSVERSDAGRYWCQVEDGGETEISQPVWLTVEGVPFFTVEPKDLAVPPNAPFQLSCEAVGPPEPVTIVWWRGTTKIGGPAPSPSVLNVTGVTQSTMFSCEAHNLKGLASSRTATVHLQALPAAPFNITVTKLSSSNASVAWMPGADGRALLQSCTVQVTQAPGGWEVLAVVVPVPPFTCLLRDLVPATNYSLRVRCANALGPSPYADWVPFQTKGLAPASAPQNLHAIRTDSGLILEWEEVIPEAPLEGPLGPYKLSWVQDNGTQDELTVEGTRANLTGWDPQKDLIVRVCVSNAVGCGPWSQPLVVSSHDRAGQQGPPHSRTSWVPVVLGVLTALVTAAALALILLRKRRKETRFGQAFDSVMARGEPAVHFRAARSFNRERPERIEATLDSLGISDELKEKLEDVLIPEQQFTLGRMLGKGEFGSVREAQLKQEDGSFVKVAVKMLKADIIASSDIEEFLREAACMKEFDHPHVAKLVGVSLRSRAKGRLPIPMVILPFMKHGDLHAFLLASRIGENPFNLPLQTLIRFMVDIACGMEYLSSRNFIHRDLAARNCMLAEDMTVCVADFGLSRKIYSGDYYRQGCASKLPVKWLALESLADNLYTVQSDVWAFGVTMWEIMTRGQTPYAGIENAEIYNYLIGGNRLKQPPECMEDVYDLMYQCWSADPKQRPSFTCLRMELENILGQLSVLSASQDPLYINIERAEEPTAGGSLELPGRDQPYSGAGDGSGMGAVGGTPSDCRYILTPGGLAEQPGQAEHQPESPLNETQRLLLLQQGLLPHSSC
Chain of MLK1(h) (P80192 whole entry): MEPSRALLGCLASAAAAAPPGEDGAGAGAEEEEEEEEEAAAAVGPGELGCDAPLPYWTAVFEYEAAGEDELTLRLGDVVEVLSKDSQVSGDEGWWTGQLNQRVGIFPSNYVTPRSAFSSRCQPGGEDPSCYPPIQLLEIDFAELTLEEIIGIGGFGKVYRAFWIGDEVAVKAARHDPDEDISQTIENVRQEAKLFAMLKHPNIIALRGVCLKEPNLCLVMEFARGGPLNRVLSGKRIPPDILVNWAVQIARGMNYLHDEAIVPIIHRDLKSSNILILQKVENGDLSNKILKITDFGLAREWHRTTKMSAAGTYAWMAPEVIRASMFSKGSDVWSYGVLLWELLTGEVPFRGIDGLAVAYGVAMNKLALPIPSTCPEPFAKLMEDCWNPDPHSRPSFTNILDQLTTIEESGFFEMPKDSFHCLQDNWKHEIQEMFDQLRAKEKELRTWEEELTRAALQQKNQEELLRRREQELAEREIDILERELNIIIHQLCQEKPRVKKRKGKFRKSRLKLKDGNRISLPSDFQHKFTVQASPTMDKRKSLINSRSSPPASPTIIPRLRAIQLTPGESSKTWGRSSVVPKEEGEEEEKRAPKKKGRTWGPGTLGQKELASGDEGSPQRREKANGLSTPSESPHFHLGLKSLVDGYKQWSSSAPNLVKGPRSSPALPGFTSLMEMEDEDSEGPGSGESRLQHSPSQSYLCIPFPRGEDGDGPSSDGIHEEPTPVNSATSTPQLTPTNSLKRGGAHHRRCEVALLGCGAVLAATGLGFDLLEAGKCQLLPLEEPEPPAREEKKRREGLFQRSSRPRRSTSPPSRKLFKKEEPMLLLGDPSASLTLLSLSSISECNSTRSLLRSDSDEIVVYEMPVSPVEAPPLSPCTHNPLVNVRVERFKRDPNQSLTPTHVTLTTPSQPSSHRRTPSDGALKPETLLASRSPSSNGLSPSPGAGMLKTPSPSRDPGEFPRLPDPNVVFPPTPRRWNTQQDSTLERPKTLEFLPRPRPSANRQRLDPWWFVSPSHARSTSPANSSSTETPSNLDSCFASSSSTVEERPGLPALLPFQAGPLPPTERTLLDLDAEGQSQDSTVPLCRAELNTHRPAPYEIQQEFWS

Q: How did the “Activity(%)” value [1] turn out when `COc1ccc(OC)c(NS(=O)(=O)c2ccc(NC(=O)CCSc3ccc(C)cc3)cc2)c1` [Compound A41] was run?
A: 84%

Q: What about the “Activity(%)” value [2] of the same compound?
A: 87%

Q: What about the “Activity(%)” value [3] of the same compound?
A: 102%

Q: And the “Activity(%)” value [4]?
A: 102%

Q: And the “Activity(%)” value [5]?
A: 103%

Q: What about the “Activity(%)” value [6] of the same compound?
A: 109%

Q: And the p44/42 activation [7]?
A: unchanged

Q: What about the “hyperactivation of AKT” value [8] of the same compound?
A: reduced

Q: And the “Activity(%)” value [9]?
A: 99%

Q: What about the “Activity(%)” value [10] of the same compound?
A: 87%
